The values that follow come from US7820673B2, “Urea derivative, process for producing the same, and use” (Takeda Pharmaceutical Company Limited, priority 2003, dated 2010).

This test deals with human FXa (Homo sapiens, UniProt P00742). The test can be described thus: Human activated blood coagulation factor X (FXa) inhibitory action. Type of test: biochemical. The conditions noted are these: concentration inhibiting 50% of the FXa action; substrate S-2765, 37° C., absorbance at 405 nm. On the procedure:
(1) Human Activated Blood Coagulation Factor X (FXa) Inhibitory Action
Method of experiment: 225 μl of a 0.05 M Tris hydrochloride buffer (pH 8.3) containing 0.145 M sodium chloride and 2 mM calcium chloride, 5 μl of a sample (the test compound is dissolved in dimethylsulfoxide), and 10 μl of human FXa (0.3 unit/ml) were added to a 96-well microplate to react at 37° C. for about 10 minutes, and then 10 μl of a substrate (3 mM, S-2765) was added thereto to react at 37° C. for about 10 minutes. Subsequently, 25 μl of a 50% aqueous acetic acid solution was added to terminate the reaction, and then the change in the absorbance at 405 nm was measured with a spectrophotometer to calculate the concentration inhibiting 50% of the FXa action (IC50).

Sequence of human FXa (P00742 235-488 limits assumed): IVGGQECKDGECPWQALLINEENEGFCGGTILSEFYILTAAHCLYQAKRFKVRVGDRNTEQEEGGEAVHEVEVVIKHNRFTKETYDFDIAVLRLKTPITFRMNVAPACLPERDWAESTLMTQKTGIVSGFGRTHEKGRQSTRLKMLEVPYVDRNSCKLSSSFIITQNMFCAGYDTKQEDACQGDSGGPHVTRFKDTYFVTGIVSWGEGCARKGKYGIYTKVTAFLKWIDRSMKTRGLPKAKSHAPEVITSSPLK
Sequence of human FXa (P00742 41-179 partner limits assumed): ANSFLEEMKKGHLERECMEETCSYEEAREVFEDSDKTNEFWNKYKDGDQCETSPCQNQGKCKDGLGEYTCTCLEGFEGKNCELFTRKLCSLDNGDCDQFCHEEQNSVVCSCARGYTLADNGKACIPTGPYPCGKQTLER

`Cc1ncc2n1C(=O)N(N1CCN(C(=O)[C@H](NC(=O)Nc3ccc(Cl)cc3)C(C)(C)C)CC1)C2` [Example 20, N—(4-chlorophenyl)—N′—((1R)-2,2-dimethyl-1-((4-(5-methyl-3-oxo-1H-imidazo[1,5-c]imidazol-2(3H)-yl)-1-piperazinyl)carbonyl)propyl)urea] came in with an IC50 of 0.018 µM.
Under `CCC(O)(CC)C(NC(=O)Nc1ccc(Cl)cc1)C(=O)N1CCN(N2Cc3cnc(C)n3C2=O)CC1` (stereo not shown) [Example 37, N—(4-chlorophenyl)—N ′—(2-ethyl-2-hydroxy-1-((4-(5-methyl-3-oxo-1H-imidazo[1,5-c]imidazol-2(3H)-yl)-1-piperazinyl)carbonyl)butyl)urea] stands 0.026 µM; under `CSC(C)(C)[C@@H](NC(=O)Nc1ccc(Cl)cc1)C(=O)N1CCN(N2Cc3cnc(C)n3C2=O)CC1` [Example 40, N—(4-chlorophenyl)—N′—((1S)-2-methyl-1-((4-(5-methyl-3-oxo-1H-imidazo[1,5-c]imidazol-2(3H)-yl)-1-piperazinyl)carbonyl)-2-(methylthio)propyl)urea], 0.01 µM.
Under `COC(C)(C)C(NC(=O)Nc1ccc(Cl)cc1)C(=O)N1CCN(N2Cc3cnc(C)n3C2=O)CC1` (stereo not shown) [Example 74, N-(4-chlorophenyl)-N′-(2-methoxy-2-methyl-1-((4-(5-methyl-3-oxo-1H-imidazo[1,5-c]imidazol-2(3H)-yl)-1-piperazinyl)carbonyl)propyl)urea] stands 0.05 µM.

As usually defined, the IC50 is the midpoint of a concentration-inhibition curve. A higher IC50 goes with a need for much substance.
